From US11345659B2, “Pipecolic esters for inhibition of the proteasome” (THE BOARD OF REGENTS OF THE UNIVERSY OF TEXAS SYSTEM, priority 2018, dated 2022)
Where two headings read alike, the source gives them in different places.

Legend:
[1] = biological target: 20 S proteasome and 19 S regulatory particle (Homo sapiens, UniProt P25787+P25789); test: In vitro reconstruction of 26 S: activation of 20 S core by 19 S regulatory particle; assay type: biochemical; conditions: pretreatment 10 minutes RT with 1 μM, 2:1 19 S:20 S, with ATP
Protocol: The 26 S proteasome can be reconstructed in vitro from the purified core (20 S) and regulatory particle (19 S) protein complexes. Activation of the core is considered a measure of effectiveness of the reconstruction. […] The reconstruction was carried out in the presence of ATP (1 mM ATP, 0.5 mM MgCl2, 0.5 mM dithiothreitol), as required for the optimal conditions of the 20 S-19 S binding. Averages and SD from three independent experiments are presented.

26 S proteasome = biological target: T1, 26 S proteasome (Homo sapiens, UniProt P25787+P25789); test: 26 S proteasome challenged with mixture of three substrates (surrogate proteinase assay); assay type: biochemical; conditions: mixture of ChT-L, T-L and Casp-L substrates, 33.3 μM each; read-out: IC50, 26 S proteasome with substrates for all three peptidases
T1 construct: purified from erythrocytes; purchased Enzo Life Sciences, Inc. (Farmingdale, N.Y.); host or cells: human erythrocytes
Protocol: (§1) Human housekeeping 20 S and 26 S and complexes purified from erythrocytes were purchased from Enzo Life Sciences, Inc. (Farmingdale, N.Y.). The 1 mg/ml stock 20 S proteasome was diluted to 0.2 mg/ml working solution in 50 mM Tris/HCl, pH 8 containing 20% glycerol (dilution buffer). For the 26 S proteasome stock, the dilution buffer was supplemented with 2 mM ATP, 1 mM MgCl2, and 1 mM DTT (dithiothreitol). The ChT-L peptidase activity was measured as arbitrary intensity units of fluorescence emitted by 7-amino-4-methylcoumarin (AMC) released from the canonical model peptide substrate succinyl-LeuLeuValTyr-methylcoumarin (SucLLVY-MCA; Bachem Bioscience Inc., Philadelphia, Pa.), used at concentration of 100 μM. Free AMC (Sigma-Aldrich, St. Louis, Mo.) was used as the standard. The Rpt5 C-terminal peptide was synthesized (standard solid-phase peptide chemistry) and purified to at least 98% purity by GenScript (Piscataway, N.J.). The Rpt5 peptide and the peptide substrate were dissolved in dimethylsulfoxide (DMSO) and such stock solutions were stored at −20° C. The total concentration of DMSO in final reaction mixtures never exceeded 3% (vol/vol).
The reaction was carried out in 96-well plates, in 100 μL of reaction mixture, for 1 hour at 37° C. In the case of 20 S proteasome, the reaction mixture consisted of 45 mM Tris/HCl, pH 8, 100 mM KCl with premixed 10 μM Rpt5 peptide and 100 μM Suc-LLVY-MCA, to which 200 ng (nearly […]) of proteasome and desired concentration of tested compounds in 1 μL of DMSO were added. […] The reaction rates were calculated from a linear segment of kinetic curves constructed from measurements in 1-minutes intervals (Fluoroskan Ascent plate reader; Thermo Fisher Scientific Inc., Waltham, Mass.). Reaction rates were calculated using a linear fit executed by Slope Analyzer and Enzyme Kinetics applications launched within Origin Pro 2017 (OriginLab). […]

[2] = biological target: T2, 20 S human housekeeping proteasome (Homo sapiens, UniProt P25787+P25789); test: ChT-L peptidase activity of 20 S proteasome activated with Rpt5 peptide; assay type: biochemical
T2 construct: purified from erythrocytes; purchased Enzo Life Sciences, Inc. (Farmingdale, N.Y.); host or cells: human erythrocytes
Protocol: as §1
The reaction was carried out in 96-well plates, in 100 μL of reaction mixture, for 1 hour at 37° C. In the case of 20 S proteasome, the reaction mixture consisted of 45 mM Tris/HCl, pH 8, 100 mM KCl with premixed 10 μM Rpt5 peptide and 100 μM Suc-LLVY-MCA, to which 200 ng (nearly […]) of proteasome and desired concentration of tested compounds in 1 μL of DMSO were added. To test the activity of 26 S proteasome under conditions challenging coordination of the three pairs of peptidase active centers, a mixture of three canonical substrates specific for the ChT-L (SucLLVY-MCA), trypsin-like (T-L; BocLRR-MCA) and caspase-like (Casp-L; Z-LLE-MCA) was used with each of the substrates at 33.3 μM (100 μM of the total substrate concentration). The reaction mixture in this case consisted of 50 mM Tris/HCl, pH 8, 20 mM NaCl, premixed with the substrates and 2 mM ATP, to which 200 ng (nearly 0.1 nmol) of the 26 S working solution and desired concentration of tested compounds in 0.5 μL of DMSO were added. The reaction rates were calculated from a linear segment of kinetic curves constructed from measurements in 1-minutes intervals (Fluoroskan Ascent plate reader; Thermo Fisher Scientific Inc., Waltham, Mass.). Reaction rates were calculated using a linear fit executed by Slope Analyzer and Enzyme Kinetics applications launched within Origin Pro 2017 (OriginLab). Specific activity of the control 20 S proteasome activated with the Rpt5 peptide was in the range of 1.4 to 2.3 nanomoles of AMC product released by 1 mg of 20 S per second (1.95±0.24; n=18). Specific activity of the control 26 S proteasome challenged with three substrates reached on average 0.28±0.06 nanomoles of AMC product released by 1 mg of the enzyme per second (n=6). For comparison, degradation of the canonical Suc-LLVY-MCA substrate by the control 26 S proteasome preceded with a rate in the range of 0.6-0.8 nanomoles of AMC released per mg of the enzyme per second. The data are presented as mean±SD or as a representative set from at least 3 independent experiments.
The compounds were evaluated using the 20 S human housekeeping proteasome. It was activated with the Rpt5 derived 10-residue peptide that contains the C-terminal HbYX (hydrophobic-Tyr-any AA) motif activating the proteasome in trans and to some extend mimic the activation by the 19 S regulatory particle (Osmulski and Gaczynska (2013) Molecular pharmacology 84: 104-113; Smith et al. (2006) J. Struct. Biol. 156: 72-83; Smith et al. (2007) Mol. Cell 27: 731-744). Proteolytic activity was monitored over time using a fluorogenic peptide substrate specific for the chymotrypsin-like active center (ChT-L, Suc-LLVY-AMC) in the presence of a concentration range of the inhibitors. […]

[3] = biological target: T3, latent core 20 S proteasome (Homo sapiens, UniProt P25787+P25789); test: PGPH peptidase activity of latent 20 S core; assay type: biochemical
T3 construct: purified from erythrocytes; purchased Enzo Life Sciences, Inc. (Farmingdale, N.Y.); host or cells: human erythrocytes

immunoproteasomes = immunoproteasomes (Homo sapiens, UniProt P25787+P25789); test: Activity of housekeeping and immunoproteasomes activated with Rpt5-derived peptide; assay type: biochemical
Text: Immuno and housekeeping forms are serving distinct physiological functions. The clinically used competitive inhibitors do target them with a similar efficacy; however such outcome is not obvious with allosteric inhibitors such as compound 3. Referring to FIG. 11, the relative activities of the proteasome forms are shown, activated with the Rpt5-derived peptide and treated with compound 3.

[4] = test system: human cultured androgen-resistant prostate cancer PC3 cells; test: Scratch test with PC3 cells; assay type: cell-based; conditions: 1 μM, 24 hrs, 0.5 mm gap
Protocol: The “scratch test” was performed with human cultured androgen-resistant prostate cancer PC3 cells. The surface of growing confluent cells was scratched to produce a 0.5 mm wide gap. The scratch was photographed at time 0 hrs. and the cells were cultured with vehicle (DMSO; 1:1000) or with 1 μM of compound 3. After 24 hrs the scratch in control culture was almost entirely closed.

COc1cc(CCCOC(=O)[C@@H]2CCCCN2C(=O)OCc2ccccc2)cc(OC)c1OC [Compound 3, 1-benzyl 2-(3-(3,4,5-trimethoxyphenyl)propyl) (S)-piperidine-1,2-dicarboxylate]
activation of 20 S core by 19 S [1]: strongly attenuated the activation, by about two-thirds | IC50 (26 S proteasome): 1200 nM | IC50 ([2]; ChT-L, Suc-LLVY-AMC substrate, 20 S activated with Rpt5 peptide, read-out: IC50): 2000 nM | IC50 ([2]; summary of FIG. 3A and FIG. 3B, read-out: in vitro determined IC50 values for peptidase activities): 2000 to 3000 nM | remaining ChT-L activity ([2]; tRpt5 added first, n=3): 53%±7% | IC50 [3]: > 50000 nM | remaining activity at 10 µM ([3]; 10 μM compound, n=5, read-out: PGPH activity, % of control): 99% | remaining activity at 50 µM ([3]; 50 μM compound, n=3, read-out: PGPH activity, % of control): 71% | inhibition of housekeeping versus immunoproteasomes (immunoproteasomes): inhibits both housekeeping and immunoproteasomes with similar efficacy | closure of scratch (migration and proliferation) [4]: the scratch was still visible
